Test system: 422866-222-R5-J1-PDC spheroids with HUVEC/MSC, viability
Assay: Anticancer human tumor 422866-222-R5-J1-PDC patient-derived pancreatic adenocarcinoma cell line growth inhibition [GQUAD]
Details: for IC50: curve of first compound; for viability, T/C: stronger effect = lower value
Outline: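 Viability of tumor cells grown as complex spheroids with endothelial and stromal cells, exposed to drug combinations. Top concentration at or near clinical Cmax (else 10 microM), diluted in half-log increments.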

[1] = second compound 0.0316 µM, first compound 0.0316 µM
[2] = second compound 0.0316 µM, first compound 0.1 µM
[3] = second compound 0.0316 µM, first compound 0.316 µM
[4] = second compound 0.0316 µM, first compound 1 µM
[5] = second compound 0.0316 µM, first compound 3.16 µM
[6] = second compound 0.0316 µM, first compound 10 µM
[7] = second compound 0.1 µM, first compound 0.0316 µM
[8] = second compound 0.1 µM, first compound 0.1 µM
[9] = second compound 0.1 µM, first compound 0.316 µM
[10] = second compound 0.1 µM, first compound 1 µM
[11] = second compound 0.1 µM, first compound 3.16 µM
[12] = second compound 0.1 µM, first compound 10 µM
[13] = second compound 0.316 µM, first compound 0.0316 µM
[14] = second compound 0.316 µM, first compound 0.1 µM
[15] = second compound 0.316 µM, first compound 0.316 µM
[16] = second compound 0.316 µM, first compound 1 µM
[17] = second compound 0.316 µM, first compound 3.16 µM
[18] = second compound 0.316 µM, first compound 10 µM
[19] = second compound 1 µM, first compound 0.0316 µM
[20] = second compound 1 µM, first compound 0.1 µM
[21] = second compound 1 µM, first compound 0.316 µM
[22] = second compound 1 µM, first compound 1 µM
[23] = second compound 1 µM, first compound 3.16 µM
[24] = second compound 1 µM, first compound 10 µM
[25] = second compound 3.16 µM, first compound 0.0316 µM
[26] = second compound 3.16 µM, first compound 0.1 µM
[27] = second compound 3.16 µM, first compound 0.316 µM
[28] = second compound 3.16 µM, first compound 1 µM
[29] = second compound 3.16 µM, first compound 3.16 µM
[30] = second compound 3.16 µM, first compound 10 µM
[31] = second compound 10 µM, first compound 0.0316 µM
[32] = second compound 10 µM, first compound 0.1 µM
[33] = second compound 10 µM, first compound 0.316 µM
[34] = second compound 10 µM, first compound 1 µM
[35] = second compound 10 µM, first compound 3.16 µM
[36] = second compound 10 µM, first compound 10 µM
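Note: spheroids exposed to compounds for seven days before reading.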
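Throughout, for viability, T/C: percent viability relative to DMSO vehicle control taken as 100%.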

O=C(NO)c1cnc(N2CCN(S(=O)(=O)c3ccc4ccccc4c3)CC2)nc1 + Cc1[nH]c2ccc(F)cc2c1-c1nc2c3cccnc3c3ncccc3c2[nH]1
IC50 (second compound 0.0316 µM): > 10 µM | IC50 (second compound 0.1 µM): > 10 µM | IC50 (second compound 0.316 µM): > 10 µM | IC50 (second compound 1 µM): > 10 µM | IC50 (second compound 3.16 µM): > 10 µM | IC50 (second compound 10 µM): > 10 µM | viability, T/C [1]: 78.6% | viability, T/C [2]: 69.2% | viability, T/C [3]: 64.7% | viability, T/C [4]: 68.1% | viability, T/C [5]: 71.6% | viability, T/C [6]: 75.4% | viability, T/C [7]: 81.1% | viability, T/C [8]: 68.3% | viability, T/C [9]: 56.4% | viability, T/C [10]: 61% | viability, T/C [11]: 74.2% | viability, T/C [12]: 72.3% | viability, T/C [13]: 77.5% | viability, T/C [14]: 68% | viability, T/C [15]: 71.4% | viability, T/C [16]: 61.7% | viability, T/C [17]: 63.2% | viability, T/C [18]: 78.1% | viability, T/C [19]: 64.4% | viability, T/C [20]: 61.6% | viability, T/C [21]: 62.6% | viability, T/C [22]: 61.2% | viability, T/C [23]: 75% | viability, T/C [24]: 70% | viability, T/C [25]: 56% | viability, T/C [26]: 56.6% | viability, T/C [27]: 51.6% | viability, T/C [28]: 63.3% | viability, T/C [29]: 67.8% | viability, T/C [30]: 66% | viability, T/C [31]: 60.1% | viability, T/C [32]: 47.8% | viability, T/C [33]: 59.5% | viability, T/C [34]: 57% | viability, T/C [35]: 51% | viability, T/C [36]: 64.4%

CC1COCCN1c1cc(-c2ccnn2C)c2ccnc(-c3ccn[nH]3)c2n1 (centres undefined) + Cc1cnc(CNC(=O)c2c(=O)c3ccc(N4CCCN(C)CC4)nc3n3c2sc2ccccc23)cn1
IC50 (second compound 0.0316 µM): > 10 µM | IC50 (second compound 0.1 µM): 0.0316 µM | IC50 (second compound 0.316 µM): > 10 µM | IC50 (second compound 1 µM): > 10 µM | IC50 (second compound 3.16 µM): > 10 µM | IC50 (second compound 10 µM): > 10 µM | viability, T/C [1]: 75.9% | viability, T/C [2]: 61.6% | viability, T/C [3]: 47.4% | viability, T/C [4]: 38% | viability, T/C [5]: 55% | viability, T/C [6]: 81.7% | viability, T/C [7]: 64.5% | viability, T/C [8]: 53.1% | viability, T/C [9]: 48.5% | viability, T/C [10]: 41.6% | viability, T/C [11]: 46.5% | viability, T/C [12]: 89.7% | viability, T/C [13]: 65.3% | viability, T/C [14]: 60.9% | viability, T/C [15]: 50.7% | viability, T/C [16]: 40.5% | viability, T/C [17]: 50.9% | viability, T/C [18]: 69.9% | viability, T/C [19]: 71.4% | viability, T/C [20]: 68.7% | viability, T/C [21]: 53.2% | viability, T/C [22]: 53.1% | viability, T/C [23]: 47.5% | viability, T/C [24]: 67.7% | viability, T/C [25]: 70.2% | viability, T/C [26]: 74.8% | viability, T/C [27]: 61% | viability, T/C [28]: 59% | viability, T/C [29]: 46.9% | viability, T/C [30]: 61.8% | viability, T/C [31]: 66.3% | viability, T/C [32]: 66.9% | viability, T/C [33]: 56% | viability, T/C [34]: 51.6% | viability, T/C [35]: 57.6% | viability, T/C [36]: 53.1%

Reference: PubChem BioAssay AID2060511 (Molecular Pharmacology Branch, DTP, NCI, 2025)
